In PubChem BioAssay AID1963825 (Molecular Pharmacology Branch, DTP, NCI, 2024):

assay: Anticancer human tumor 997537-175-T-J1-PDC patient-derived colon adenocarcinoma cell line growth inhibition [POLQ]; settings: 997537-175-T-J1-PDC complex spheroid viability, combination with POLQ inhibitors; second compound 3.16 µM; first compound 0.1 µM; hits give low values
How it was run: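 Three-cell-type spheroids modelling solid tumor plus stroma served as the readout system; POL inhibitors were tested individually and in combination, concentration ranges set by clinical Cmax where known.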
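Also: luminescence signal used as a surrogate for viable cells; spheroids exposed to drugs for seven days before readout.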

SMILES | viability, T/C
O=c1[nH]cc(F)c(=O)[nH]1 + Cc1cccc(N(C)C(=O)C2C(O)CCN2c2nc(C)cc(C(F)(F)F)c2C#N)c1 | 99%
CNCc1ccc(-c2[nH]c3cc(F)cc4c3c2CCNC4=O)cc1 + COC1C(OC(N)=O)C(O)C(Oc2ccc3c(O)c(NC(=O)c4ccc(O)c(CC=C(C)C)c4)c(=O)oc3c2C)OC1(C)C | 98.1%
COc1cccc(OCCCN)c1-c1cc(Nc2cnc(C#N)cn2)n[nH]1 + Cc1cccc(N(C)C(=O)C2C(O)CCN2c2nc(C)cc(C(F)(F)F)c2C#N)c1 | 20.6%
C=CC(=O)N1CCN(c2nc(=O)n(-c3c(C)ccnc3C(C)C)c3nc(-c4c(O)cccc4F)c(F)cc23)C(C)C1 (configuration not stated) + Cc1cccc(N(C)C(=O)C2C(O)CCN2c2nc(C)cc(C(F)(F)F)c2C#N)c1 | 99.3%

same assay, conditions: 997537-175-T-J1-PDC complex spheroid viability, combination with POLQ inhibitors; second compound 3.16 µM; first compound 0.316 µM; hits give low values

SMILES | viability, T/C
O=c1[nH]cc(F)c(=O)[nH]1 + Cc1cccc(N(C)C(=O)C2C(O)CCN2c2nc(C)cc(C(F)(F)F)c2C#N)c1 | 98.8%
CNCc1ccc(-c2[nH]c3cc(F)cc4c3c2CCNC4=O)cc1 + COC1C(OC(N)=O)C(O)C(Oc2ccc3c(O)c(NC(=O)c4ccc(O)c(CC=C(C)C)c4)c(=O)oc3c2C)OC1(C)C | 104%
COc1cccc(OCCCN)c1-c1cc(Nc2cnc(C#N)cn2)n[nH]1 + Cc1cccc(N(C)C(=O)C2C(O)CCN2c2nc(C)cc(C(F)(F)F)c2C#N)c1 | 18.4%
C=CC(=O)N1CCN(c2nc(=O)n(-c3c(C)ccnc3C(C)C)c3nc(-c4c(O)cccc4F)c(F)cc23)C(C)C1 (configuration not stated) + Cc1cccc(N(C)C(=O)C2C(O)CCN2c2nc(C)cc(C(F)(F)F)c2C#N)c1 | 98.6%

same assay, conditions: 997537-175-T-J1-PDC complex spheroid viability, combination with POLQ inhibitors; second compound 3.16 µM; first compound 1 µM; hits give low values

SMILES | viability, T/C
O=c1[nH]cc(F)c(=O)[nH]1 + Cc1cccc(N(C)C(=O)C2C(O)CCN2c2nc(C)cc(C(F)(F)F)c2C#N)c1 | 87.8%
CNCc1ccc(-c2[nH]c3cc(F)cc4c3c2CCNC4=O)cc1 + COC1C(OC(N)=O)C(O)C(Oc2ccc3c(O)c(NC(=O)c4ccc(O)c(CC=C(C)C)c4)c(=O)oc3c2C)OC1(C)C | 101%
COc1cccc(OCCCN)c1-c1cc(Nc2cnc(C#N)cn2)n[nH]1 + Cc1cccc(N(C)C(=O)C2C(O)CCN2c2nc(C)cc(C(F)(F)F)c2C#N)c1 | 36%
C=CC(=O)N1CCN(c2nc(=O)n(-c3c(C)ccnc3C(C)C)c3nc(-c4c(O)cccc4F)c(F)cc23)C(C)C1 (configuration not stated) + Cc1cccc(N(C)C(=O)C2C(O)CCN2c2nc(C)cc(C(F)(F)F)c2C#N)c1 | 98.7%

same assay, conditions: 997537-175-T-J1-PDC complex spheroid viability, combination with POLQ inhibitors; second compound 3.16 µM; first compound 3.16 µM; hits give low values

SMILES | viability, T/C
O=c1[nH]cc(F)c(=O)[nH]1 + Cc1cccc(N(C)C(=O)C2C(O)CCN2c2nc(C)cc(C(F)(F)F)c2C#N)c1 | 95.3%
CNCc1ccc(-c2[nH]c3cc(F)cc4c3c2CCNC4=O)cc1 + COC1C(OC(N)=O)C(O)C(Oc2ccc3c(O)c(NC(=O)c4ccc(O)c(CC=C(C)C)c4)c(=O)oc3c2C)OC1(C)C | 85.8%
C=CC(=O)N1CCN(c2nc(=O)n(-c3c(C)ccnc3C(C)C)c3nc(-c4c(O)cccc4F)c(F)cc23)C(C)C1 (configuration not stated) + Cc1cccc(N(C)C(=O)C2C(O)CCN2c2nc(C)cc(C(F)(F)F)c2C#N)c1 | 93.9%

same assay, conditions: 997537-175-T-J1-PDC complex spheroid viability, combination with POLQ inhibitors; second compound 3.16 µM; first compound 10 µM; hits give low values

SMILES | viability, T/C
O=c1[nH]cc(F)c(=O)[nH]1 + Cc1cccc(N(C)C(=O)C2C(O)CCN2c2nc(C)cc(C(F)(F)F)c2C#N)c1 | 79.6%
CNCc1ccc(-c2[nH]c3cc(F)cc4c3c2CCNC4=O)cc1 + COC1C(OC(N)=O)C(O)C(Oc2ccc3c(O)c(NC(=O)c4ccc(O)c(CC=C(C)C)c4)c(=O)oc3c2C)OC1(C)C | 86.8%
C=CC(=O)N1CCN(c2nc(=O)n(-c3c(C)ccnc3C(C)C)c3nc(-c4c(O)cccc4F)c(F)cc23)C(C)C1 (configuration not stated) + Cc1cccc(N(C)C(=O)C2C(O)CCN2c2nc(C)cc(C(F)(F)F)c2C#N)c1 | 99.3%

same assay, conditions: 997537-175-T-J1-PDC complex spheroid viability, combination with POLQ inhibitors; second compound 10 µM; first compound 0.00316 µM; hits give low values

SMILES | viability, T/C
COc1cccc(OCCCN)c1-c1cc(Nc2cnc(C#N)cn2)n[nH]1 + Cc1cccc(N(C)C(=O)C2C(O)CCN2c2nc(C)cc(C(F)(F)F)c2C#N)c1 | 86.8%

same assay, conditions: 997537-175-T-J1-PDC complex spheroid viability, combination with POLQ inhibitors; second compound 10 µM; first compound 0.01 µM; hits give low values

SMILES | viability, T/C
COc1cccc(OCCCN)c1-c1cc(Nc2cnc(C#N)cn2)n[nH]1 + Cc1cccc(N(C)C(=O)C2C(O)CCN2c2nc(C)cc(C(F)(F)F)c2C#N)c1 | 73.6%

same assay, conditions: 997537-175-T-J1-PDC complex spheroid viability, combination with POLQ inhibitors; second compound 10 µM; first compound 0.0316 µM; hits give low values

SMILES | viability, T/C
O=c1[nH]cc(F)c(=O)[nH]1 + Cc1cccc(N(C)C(=O)C2C(O)CCN2c2nc(C)cc(C(F)(F)F)c2C#N)c1 | 93.1%
CNCc1ccc(-c2[nH]c3cc(F)cc4c3c2CCNC4=O)cc1 + COC1C(OC(N)=O)C(O)C(Oc2ccc3c(O)c(NC(=O)c4ccc(O)c(CC=C(C)C)c4)c(=O)oc3c2C)OC1(C)C | 99.5%
COc1cccc(OCCCN)c1-c1cc(Nc2cnc(C#N)cn2)n[nH]1 + Cc1cccc(N(C)C(=O)C2C(O)CCN2c2nc(C)cc(C(F)(F)F)c2C#N)c1 | 62.9%
C=CC(=O)N1CCN(c2nc(=O)n(-c3c(C)ccnc3C(C)C)c3nc(-c4c(O)cccc4F)c(F)cc23)C(C)C1 (configuration not stated) + Cc1cccc(N(C)C(=O)C2C(O)CCN2c2nc(C)cc(C(F)(F)F)c2C#N)c1 | 102%

same assay, conditions: 997537-175-T-J1-PDC complex spheroid viability, combination with POLQ inhibitors; second compound 10 µM; first compound 0.1 µM; hits give low values

SMILES | viability, T/C
O=c1[nH]cc(F)c(=O)[nH]1 + Cc1cccc(N(C)C(=O)C2C(O)CCN2c2nc(C)cc(C(F)(F)F)c2C#N)c1 | 96.4%
CNCc1ccc(-c2[nH]c3cc(F)cc4c3c2CCNC4=O)cc1 + COC1C(OC(N)=O)C(O)C(Oc2ccc3c(O)c(NC(=O)c4ccc(O)c(CC=C(C)C)c4)c(=O)oc3c2C)OC1(C)C | 95.9%
COc1cccc(OCCCN)c1-c1cc(Nc2cnc(C#N)cn2)n[nH]1 + Cc1cccc(N(C)C(=O)C2C(O)CCN2c2nc(C)cc(C(F)(F)F)c2C#N)c1 | 45.8%
C=CC(=O)N1CCN(c2nc(=O)n(-c3c(C)ccnc3C(C)C)c3nc(-c4c(O)cccc4F)c(F)cc23)C(C)C1 (configuration not stated) + Cc1cccc(N(C)C(=O)C2C(O)CCN2c2nc(C)cc(C(F)(F)F)c2C#N)c1 | 121%

same assay, conditions: 997537-175-T-J1-PDC complex spheroid viability, combination with POLQ inhibitors; second compound 10 µM; first compound 0.316 µM; hits give low values

SMILES | viability, T/C
O=c1[nH]cc(F)c(=O)[nH]1 + Cc1cccc(N(C)C(=O)C2C(O)CCN2c2nc(C)cc(C(F)(F)F)c2C#N)c1 | 103%
CNCc1ccc(-c2[nH]c3cc(F)cc4c3c2CCNC4=O)cc1 + COC1C(OC(N)=O)C(O)C(Oc2ccc3c(O)c(NC(=O)c4ccc(O)c(CC=C(C)C)c4)c(=O)oc3c2C)OC1(C)C | 105%
COc1cccc(OCCCN)c1-c1cc(Nc2cnc(C#N)cn2)n[nH]1 + Cc1cccc(N(C)C(=O)C2C(O)CCN2c2nc(C)cc(C(F)(F)F)c2C#N)c1 | 53.1%
C=CC(=O)N1CCN(c2nc(=O)n(-c3c(C)ccnc3C(C)C)c3nc(-c4c(O)cccc4F)c(F)cc23)C(C)C1 (configuration not stated) + Cc1cccc(N(C)C(=O)C2C(O)CCN2c2nc(C)cc(C(F)(F)F)c2C#N)c1 | 94.8%

same assay, conditions: 997537-175-T-J1-PDC complex spheroid viability, combination with POLQ inhibitors; second compound 10 µM; first compound 1 µM; hits give low values

SMILES | viability, T/C
O=c1[nH]cc(F)c(=O)[nH]1 + Cc1cccc(N(C)C(=O)C2C(O)CCN2c2nc(C)cc(C(F)(F)F)c2C#N)c1 | 95.1%
CNCc1ccc(-c2[nH]c3cc(F)cc4c3c2CCNC4=O)cc1 + COC1C(OC(N)=O)C(O)C(Oc2ccc3c(O)c(NC(=O)c4ccc(O)c(CC=C(C)C)c4)c(=O)oc3c2C)OC1(C)C | 96.6%
COc1cccc(OCCCN)c1-c1cc(Nc2cnc(C#N)cn2)n[nH]1 + Cc1cccc(N(C)C(=O)C2C(O)CCN2c2nc(C)cc(C(F)(F)F)c2C#N)c1 | 30.1%
C=CC(=O)N1CCN(c2nc(=O)n(-c3c(C)ccnc3C(C)C)c3nc(-c4c(O)cccc4F)c(F)cc23)C(C)C1 (configuration not stated) + Cc1cccc(N(C)C(=O)C2C(O)CCN2c2nc(C)cc(C(F)(F)F)c2C#N)c1 | 96.1%

same assay, conditions: 997537-175-T-J1-PDC complex spheroid viability, combination with POLQ inhibitors; second compound 10 µM; first compound 3.16 µM; hits give low values

SMILES | viability, T/C
O=c1[nH]cc(F)c(=O)[nH]1 + Cc1cccc(N(C)C(=O)C2C(O)CCN2c2nc(C)cc(C(F)(F)F)c2C#N)c1 | 89.8%
CNCc1ccc(-c2[nH]c3cc(F)cc4c3c2CCNC4=O)cc1 + COC1C(OC(N)=O)C(O)C(Oc2ccc3c(O)c(NC(=O)c4ccc(O)c(CC=C(C)C)c4)c(=O)oc3c2C)OC1(C)C | 97.5%
C=CC(=O)N1CCN(c2nc(=O)n(-c3c(C)ccnc3C(C)C)c3nc(-c4c(O)cccc4F)c(F)cc23)C(C)C1 (configuration not stated) + Cc1cccc(N(C)C(=O)C2C(O)CCN2c2nc(C)cc(C(F)(F)F)c2C#N)c1 | 79.8%

same assay, conditions: 997537-175-T-J1-PDC complex spheroid viability, combination with POLQ inhibitors; second compound 10 µM; first compound 10 µM; hits give low values

SMILES | viability, T/C
O=c1[nH]cc(F)c(=O)[nH]1 + Cc1cccc(N(C)C(=O)C2C(O)CCN2c2nc(C)cc(C(F)(F)F)c2C#N)c1 | 71.8%
CNCc1ccc(-c2[nH]c3cc(F)cc4c3c2CCNC4=O)cc1 + COC1C(OC(N)=O)C(O)C(Oc2ccc3c(O)c(NC(=O)c4ccc(O)c(CC=C(C)C)c4)c(=O)oc3c2C)OC1(C)C | 90.3%
C=CC(=O)N1CCN(c2nc(=O)n(-c3c(C)ccnc3C(C)C)c3nc(-c4c(O)cccc4F)c(F)cc23)C(C)C1 (configuration not stated) + Cc1cccc(N(C)C(=O)C2C(O)CCN2c2nc(C)cc(C(F)(F)F)c2C#N)c1 | 93.1%
